US9499502B2, “5-substituted iminothiazines and their mono- and dioxides as BACE inhibitors, compositions, and their use” (Merck Sharp & Dohme Corp., priority 2011, dated 2016)
Like-named read-outs stand apart in the source and are kept apart here.

Target: soluble human BACE1 catalytic domain (Homo sapiens (Human), UniProt P56817)
Experiment: BACE1 HTRF FRET Assay
Conditions: for inhibition at 10 µM: read-out: BACE1 inhibition, % Inh. at 10 μM, at 10 μM
[1] = read-out: BACE1 Ki, Ki calculated from IC50 using the Cheng-Prusoff equation

soluble human BACE1 catalytic domain, sequence (P56817 75-416): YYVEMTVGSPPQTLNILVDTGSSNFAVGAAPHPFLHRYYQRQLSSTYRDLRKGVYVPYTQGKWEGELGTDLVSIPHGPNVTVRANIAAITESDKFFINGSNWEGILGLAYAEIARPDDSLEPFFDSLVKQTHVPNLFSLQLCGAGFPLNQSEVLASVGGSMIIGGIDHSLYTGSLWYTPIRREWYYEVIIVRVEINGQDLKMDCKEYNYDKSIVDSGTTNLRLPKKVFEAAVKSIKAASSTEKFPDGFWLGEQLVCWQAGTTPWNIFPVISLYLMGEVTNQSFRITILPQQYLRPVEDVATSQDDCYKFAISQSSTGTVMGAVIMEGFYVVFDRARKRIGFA

Row | SMILES | Ki (read-out: BACE1 Ki) | further results
1 | CC1(C)C(=N)N[C@](C)(c2sc(-c3nnc(-c4ccccc4)o3)cc2Cl)CS1(=O)=O [Example 27ba] |  | Ki [1]: 258 nM
2 | COc1ccc(-c2nnc(-c3cc(Cl)c([C@]4(C)CS(=O)(=O)C(C)(C)C(=N)N4)s3)o2)cc1 [Example 27bd] |  | Ki [1]: 76.1 nM
3 | CC1(C)C(=N)N[C@](C)(c2sc(-c3nnc(-c4ccc(C#N)cc4)o3)cc2Cl)CS1(=O)=O [Example 27be] |  | Ki [1]: 49.2 nM
4 | CC1(C)C(=N)N[C@](C)(c2sc(-c3nnc(-c4ccc(C#N)cc4)o3)cc2F)CS1(=O)=O [Example 27bi] | 48.9 nM | 
5 | C[C@@]1(c2sc(-c3cccc(C#N)c3)cc2F)CS(=O)(=O)[C@](C)(CC(F)(F)F)C(=N)N1 [Example 27bj-b] | 829 nM | 
6 | C[C@@]1(c2sc(-c3cccc(-c4nnco4)c3)cc2F)CS(=O)(=O)[C@](C)(CC(F)(F)F)C(=N)N1 [Example 27bk-b] | 106 nM | 
7 | COc1cccc(-c2cc(F)c([C@]3(C)CS(=O)(=O)[C@](C)(CC(F)(F)F)C(=N)N3)s2)c1 [Example 27bl-b] | 7310 nM | 
8 | COc1cncc(-c2cc(F)c([C@]3(C)CS(=O)(=O)C(C)(CC(F)(F)F)C(=N)N3)s2)c1 (stereo partly shown) [Example 27bn-a] | 8020 nM | 
9 | C[C@@]1(c2sc(-c3cccc(C#N)c3)cc2F)CS(=O)(=O)[C@@](C)(c2ccccn2)C(=N)N1 [Example 27bo-a] | 132 nM | 
10 | C[C@@]1(c2ccccn2)C(=N)N[C@](C)(c2sc(-c3cncc(C#N)c3)cc2F)CS1(=O)=O [Example 27bq-b] | 2500 nM | 
11 | COCC1(COC)C(=N)N[C@](C)(c2sc(-c3cccc(C#N)c3)cc2Cl)CS1(=O)=O [Example 27bt] | 135 nM | 
12 | C[C@@]1(c2sc(-c3nnc(-c4ccc(Cl)cc4)o3)cc2F)CS(=O)(=O)[C@](C)(CC(F)(F)F)C(=N)N1 [Example 27by-b] | 450 nM | 
13 | C[C@@]1(c2sc(-c3nnc(-c4ccc(Cl)cc4)o3)cc2F)CS(=O)(=O)[C@@](C)(c2ccccn2)C(=N)N1 [Example 27bz-a] | 51 nM | 
14 | C[C@@]1(c2sc(-c3nnc(-c4ccc(Cl)cc4)o3)cc2F)CS(=O)(=O)[C@@](C)(c2ccccn2)C(=N)N1 [Example 27bz-b] |  | Ki (BACE1 Ki (nM)): 791 nM
15 | CC1(C)C(=N)N[C@](C)(c2sc(-c3cccc(-c4cnco4)c3)cc2Cl)CS1(=O)=O [Example 27c] |  | Ki [1]: 12.8 nM
16 | CC1(C)C(=N)N[C@](C)(c2sc(-c3cccc(-c4ccno4)c3)cc2Cl)CS1(=O)=O [Example 27d] |  | Ki [1]: 64.3 nM
17 | CC1(C)C(=N)N[C@](C)(c2sc(-c3csc4ccccc34)cc2Cl)CS1(=O)=O [Example 27g] | 2030 nM | 
18 | CC1(C)C(=N)N[C@](C)(c2sc(-c3ccc(F)c(C#N)c3)cc2Cl)CS1(=O)=O [Example 27j] | 5150 nM | 
19 | CC1(C)C(=N)N[C@](C)(c2sc(-c3cnn4c3CCC4)cc2Cl)CS1(=O)=O [Example 27m] | 5340 nM | 

Row | SMILES | Ki (read-out: BACE1 Ki) | further results
20 | CC1(C)C(=N)N[C@](C)(c2sc(-c3ccn4ncnc4c3)cc2Cl)CS1(=O)=O [Example 27n] | 273 nM | 
21 | CC1(C)C(=N)N[C@](C)(c2sc(-c3ccc4nncn4c3)cc2Cl)CS1(=O)=O [Example 27p] | 2530 nM | 
22 | COCCn1cc(-c2cc(Cl)c([C@]3(C)CS(=O)(=O)C(C)(C)C(=N)N3)s2)cn1 [Example 27r] | 448 nM | 
23 | COc1cncc(-c2cc(Cl)c([C@]3(C)CS(=O)(=O)C(C)(C)C(=N)N3)s2)n1 [Example 27w] | 1290 nM | 
24 | COc1ncc(-c2cc(Cl)c([C@]3(C)CS(=O)(=O)C(C)(C)C(=N)N3)s2)cn1 [Example 27y] | 1720 nM | 
25 | CC1(C)C(=N)N[C@](C)(c2sc(-c3cccc(C#N)c3F)cc2Cl)CS1(=O)=O [Example 27z] | 400 nM | 
26 | CC1(C)C(=N)N[C@](C)(c2nc3ccc(-c4ccc(F)cc4)cc3s2)CS1(=O)=O [Example 29b] | 2330 nM | 
27 | CC1(C)C(=N)N[C@](C)(c2nc3ccc(-c4cccc(C#N)c4)cc3s2)CS1(=O)=O [Example 29c] | 2380 nM | 
28 | CC1(c2nc(C#Cc3ccc(F)cc3)ccc2F)CS(=O)(=O)C(C)(C)C(=N)N1 (stereo not shown) [Example 31a] |  | inhibition at 10 µM: 41%
29 | Cc1nc2cc(CC3(C)C(=N)N[C@](C)(c4cc(F)ccc4F)CS3(=O)=O)ccc2s1 (stereo partly shown) [Example 32-b] |  | BACE1 inhibition, % Inh. at 10 μM (at 10 μM): 7% Inh at 10 μM
30 | COc1cccc([C@@]2(C)C(=N)N[C@](C)(c3cc(F)ccc3F)CS2(=O)=O)c1 [Example 32e-a] | 1100 nM | 
31 | COc1cccc([C@]2(C)C(=N)N[C@](C)(c3ccc(F)cc3F)CS2(=O)=O)c1 [Example 32f-b] |  | inhibition at 10 µM: 30%
32 | COc1cccc(C[C@]2(C)C(=N)N[C@](C)(c3ccc(F)cc3F)CS2(=O)=O)c1 [Example 32i-b] | 3820 nM | 
33 | C[C@@]1(c2ccc(F)cc2F)CS(=O)(=O)[C@](C)(Cc2cccc(Br)c2)C(=N)N1 [Example 32j-b] | 1270 nM | 
34 | C[C@@]1(c2ccc(F)cc2F)CS(=O)(=O)[C@@](C)(c2cccc(OCc3ccccc3)c2)C(=N)N1 [Example 34a] | 2170 nM | 
35 | C[C@@]1(c2ccc(F)cc2F)CS(=O)(=O)[C@@](C)(c2cccc(OCC3CC3)c2)C(=N)N1 [Example 34b] | 1130 nM | 
36 | C[C@@]1(c2cc(F)ccc2F)CS(=O)(=O)[C@@](C)(c2cccc(O)c2)C(=N)N1 [Example 34c-a] |  | Ki (read-out: BACE1 inhibition, Ki): 1000 nM
37 | C[C@@]1(c2cccc(O)c2)C(=N)N[C@](C)(c2cc(F)ccc2F)CS1(=O)=O [Example 34c-b] |  | inhibition at 10 µM: 48%
38 | C[C@@]1(c2cc(F)ccc2F)CS(=O)(=O)[C@@](C)(c2cccc(OCc3ccccc3)c2)C(=N)N1 [Example 34d-a] |  | Ki (read-out: BACE1 inhibition, Ki): 2900 nM

Now from value to compound, other results behind:

Row | Ki (read-out: BACE1 Ki) | SMILES | further results
39 | 2720 nM | C[C@@]1(c2ccccn2)C(=N)N[C@](C)(c2sc(-c3cccc(C#N)c3)cc2F)CS1(=O)=O [Example 27bo-b] | 
40 | 17.8 nM | C[C@@]1(c2sc(-c3cccc(-c4nnco4)c3)cc2F)CS(=O)(=O)[C@@](C)(c2ccccn2)C(=N)N1 [Example 27bp-a] | 
41 | 396 nM | C[C@@]1(c2ccccn2)C(=N)N[C@](C)(c2sc(-c3cccc(-c4nnco4)c3)cc2F)CS1(=O)=O [Example 27bp-b] | 
42 | 268 nM | C[C@@]1(c2sc(-c3cncc(C#N)c3)cc2F)CS(=O)(=O)[C@@](C)(c2ccccn2)C(=N)N1 [Example 27bq-a] | 
43 | 4930 nM | C[C@@]1(c2cccc(F)c2)C(=N)N[C@](C)(c2sc(-c3cccc(C#N)c3)cc2F)CS1(=O)=O [Example 27br-b] | 
44 | 3170 nM | C[C@@]1(c2ccccc2F)C(=N)N[C@](C)(c2sc(-c3cccc(C#N)c3)cc2F)CS1(=O)=O [Example 27bs-b] | 
45 | 1170 nM | COCC1(COC)C(=N)N[C@](C)(c2sc(-c3cccc(-c4nnco4)c3)cc2Cl)CS1(=O)=O [Example 27bu] | 
46 | 79 nM | COCC1(COC)C(=N)N[C@](C)(c2sc(-c3cc4cccc(OC)c4[nH]3)cc2Cl)CS1(=O)=O [Example 27bv] | 
47 | 163 nM | C[C@]1(CC2CCOCC2)C(=N)N[C@](C)(c2sc(-c3cncc(C#N)c3)cc2Cl)CS1(=O)=O [Example 27bw] | 
48 | 29.5 nM | C[C@]1(CC(F)(F)F)C(=N)N[C@](C)(c2sc(-c3nnc(-c4ccc(Cl)cc4)o3)cc2F)CS1(=O)=O [Example 27by-a] | 
49 | 1180 nM | CC1(C)C(=N)N[C@](C)(c2sc(-c3cc4ccccc4s3)cc2Cl)CS1(=O)=O [Example 27f] | 
50 | 70.9 nM | CC1(C)C(=N)N[C@](C)(c2sc(-c3cccc(OC(F)(F)F)c3)cc2Cl)CS1(=O)=O [Example 27h] | 
51 | 170 nM | CC1(C)C(=N)N[C@](C)(c2sc(-c3cc(F)cc(F)c3)cc2Cl)CS1(=O)=O [Example 27i] | 
52 | 926 nM | COc1cc(-c2cc(Cl)c([C@]3(C)CS(=O)(=O)C(C)(C)C(=N)N3)s2)ccn1 [Example 27k] | 
53 | 66.6 nM | CC1(C)C(=N)N[C@](C)(c2sc(-c3cccc(OC(F)F)c3)cc2Cl)CS1(=O)=O [Example 27o] | 
54 | 297 nM | CC1(C)C(=N)N[C@](C)(c2sc(-c3ccc4ncnn4c3)cc2Cl)CS1(=O)=O [Example 27q] | 
55 | 291 nM | CC1(C)C(=N)N[C@](C)(c2sc(-c3ccc(C#N)c(C(F)(F)F)c3)cc2Cl)CS1(=O)=O [Example 27t] | 
56 | 71.4 nM | CC1(C)C(=N)N[C@](C)(c2sc(-c3cnc(-c4ccc(F)cc4)o3)cc2Cl)CS1(=O)=O [Example 27v] | 
57 | 1110 nM | CC1(C)C(=N)N[C@](C)(c2sc(-c3coc(-c4ccc(F)cc4)n3)cc2Cl)CS1(=O)=O [Example 27x] | 
58 | 804 nM | COc1cccn2cc(-c3cc(Cl)c([C@]4(C)CS(=O)(=O)C(C)(C)C(=N)N4)s3)nc12 [Example 28a] | 
59 | 2630 nM | CC1(C)C(=N)N[C@](C)(c2sc(-c3cn4ccsc4n3)cc2Cl)CS1(=O)=O [Example 28b] | 
60 | 108 nM | COc1cccc2nc(-c3cc(Cl)c([C@]4(C)CS(=O)(=O)C(C)(C)C(=N)N4)s3)cn12 [Example 28c] | 
61 | 3380 nM | CC1(C)C(=N)N[C@](C)(c2nc3ccc(-c4cccnc4)cc3s2)CS1(=O)=O [Example 29a] | 
62 | 2840 nM | COc1cccc(-c2ccc3nc([C@]4(C)CS(=O)(=O)C(C)(C)C(=N)N4)sc3c2)c1 [Example 29d] | 
63 | 1210 nM | COc1cccc([C@@]2(C)C(=N)N[C@](C)(c3ccc(F)cc3F)CS2(=O)=O)c1 [Example 32f-a] | 
64 | 8830 nM | C[C@@]1(c2cccc(Br)c2)C(=N)N[C@](C)(c2ccc(F)cc2F)CS1(=O)=O [Example 32g-b] | 
65 | 2120 nM | C[C@@]1(c2cccc(C(F)(F)F)c2)C(=N)N[C@](C)(c2ccc(F)cc2F)CS1(=O)=O [Example 32h-b] | 
66 | 3120 nM | COc1cccc(C[C@@]2(C)C(=N)N[C@](C)(c3ccc(F)cc3F)CS2(=O)=O)c1 [Example 32i-a] | 
67 | 2100 nM | C[C@]1(Cc2cccc(Br)c2)C(=N)N[C@](C)(c2ccc(F)cc2F)CS1(=O)=O [Example 32j-a] | 
